Where two headings read alike, the source gives them in different places.
Tests used:
[1] = test system: streptozotocin-diabetic rats; assay: Blood glucose concentration of CMT-1-treated diabetic rats (Example I, FIG. 1); type: in vivo, Sprague-Dawley rat; conditions: oral gavage, 1-10 mg/day, 21 days
Excerpt: Each value represents the mean ± S.E.M. for 4 rats per experimental group.
(§1) Twenty-four adult male Sprague-Dawley rats were weighed (body weight between 350-375 g) and injected through the tail vein with either 0.9% saline (nondiabetic controls, NDC) or with the same solution containing streptozotocin ([…] body weight) to induce diabetes. The diabetic rats were distributed into five experimental groups (n=4 rats per group) and daily administered by oral gavage either 0, 1, 2, 5 or 10 mg of CMT-1 (4-dedimethylaminotetracycline, a chemically-modified non-antimicrobial tetracycline) suspended in 2% carboxymethylcellulose (CMC) for 21 days. The non-diabetic control rats were gavaged with the carrier alone (2% CMC). Urine glucose levels were measured weekly with Tes-Tape (Eli Lily, Inc., Indianapolis, Ind.).
On the 21st day, the rats were weighed and anesthetized with halothane (Halocarbon Laboratories) before blood samples were collected for serum glucose (Sigma glucose oxidase kit, St. Louis, Mo.) and CMT-1 determinations. […]
(§2) The data were subject to statistical analysis. The standard error of the mean (S.E.M) was calculated from the standard deviation. The statistical significance between the groups were determined by analysis of variance while the significance of differences between groups was calculated by Tukey's test.

[2] = type: in vivo, Sprague-Dawley rat; conditions: for Serum CMT-1 Conc.: 21 days, mean of 4 rats ± S.E.M.; for serum concentration for individual rats: individual rats (data not shown), 30240 min
Description: as §1
On the 21st day, the rats were weighed and anesthetized with halothane (Halocarbon Laboratories) before blood samples were collected for serum glucose (Sigma glucose oxidase kit, St. Louis, Mo.) and CMT-1 determinations. The rats were then killed by exsanguination and the skin from the entire torso was dissected, weighed, and minced as described by Schneir et al., Diabetes 31:426 (1982).
The extraction and HPLC determination of the concentration of CMT-1 in rat serum was carried out as described by Yu et al., Biochem. Med. & Metabolic Biol. 47:10-20 (1992).
Serum CMT-1 concentration was assayed using the HPLC technique described by Yu et al., BioChem. Med. & Metabolic Biol. 47: 10-20 (1992). […].

skin collagen [3] = assay: Solubility of skin collagen in neutral salt and dilute acid, CMT-1 (Example I, FIGS. 2 and 3); type: in vivo, Sprague-Dawley rat; conditions: for increase of collagen solubility in neutral salt solutions / increase of collagen solubility in dilute acid solutions: vs untreated diabetics, 4° C.
Description: as §1
Skin samples were examined for collagen solubility using the techniques described previously (Golub et al., J. Periodont. Res. 12:402 (1977), Golub et al., Biochim. Biophys. Acta 534:73 (1978)) with some modifications. Except where indicated, all steps were carried out at 4° C.
Briefly, for the preparation of neutral salt-soluble collagen, minced rat skin was extracted with Tris-HCl buffer (pH 7.4) for 2 days followed by centrifugation at 11,000×g for 20 min. The pellet was subjected to an additional extraction for 18 hr and centrifuged as described above. Both supernatants were then combined and dialyzed exhaustively against 3% acetic acid for 2 days.
For the preparation of acid-soluble collagen, the pellet was further extracted with 3% acetic acid as described for the neutral salt extraction. The neutral salt and dilute acid extracts were dried with a rotatory evaporator at 60° C. under vacuum.
Following acid hydrolysis, the dried samples from the two extractions were used for neutral salt- and acid-soluble collagen determinations, while the pellet was used to determine the amount of insoluble collagen.
The amount of collagen in the three different skin fractions was also estimated. In particular, aliquots of the hydrolysates were repeatedly evaporated and reconstituted with distilled water to remove the hydrochloric acid. After removal of hydrochloric acid, the aliquots Were colorimetrically analyzed for hydroxyproline, an amino acid "marker" of collagen.
as §2

[4] = test system: streptozotocin-diabetic rats; assay: Proteinuria: urine protein excretion in diabetic rats (Example III, FIG. 4); type: in vivo, rat; conditions: recent experiments, data not shown; Golub et al. 1992 cited
Description: Example III was carried out to determine the effect of tetracycline therapy on proteinuria, a parameter of renal damage, in diabetic rats.
(§3) Streptozotocin-diabetic rats were treated by the daily oral administration of 20 mg minocycline/rat/day over a 4-week period. At the end of the protocol, 24-hour urines were collected to measure protein excretion.

[5] = test system: streptozotocin-diabetic rats; assay: Other signs of diabetes (hyperglycemia, glucosuria, polyuria) in diabetic rats (Example III); type: in vivo, rat
Description: as §3

serum protein = assay: Glycosylated serum proteins in diabetic rats (Example IV, FIG. 5); type: in vivo, Sprague-Dawley rat; conditions: 5 mg daily oral gavage, 21 days; effect p<0.05
Excerpt: (Control vs. Diabetic p<0.01, Diabetic vs. Diabetic treated with Doxycycline p<0.05, Diabetic vs. Diabetic treated with CMT-1 (4-dedimethyiaminotetracycline) p<0.05).
(§4) Sixteen adult male sprague-Dawley rats, each weighing approximately 350 grams, were divided into four groups 0f four animals per group.

skin collagen [6] = assay: Glycosylation of skin collagen in diabetic rats, anthrone method (Example IV, FIG. 6); type: in vivo, Sprague-Dawley rat; conditions: 5 mg daily oral gavage, 21 days; effect p<0.05
Description: as §4
In addition, the entire skin was dissected from each rat. Samples containing 100mg of each skin were suspended in a Tris-HCl buffer containing 5mM CaCl2 and chromatographically-purified bacterial collagenase and incubated at 37° C. for 4 hours. Following incubation all samples were centrifugated at 35,000×G and the supernatants containing the skin collagen fragments were collected. The skin digest supernatants were analyzed for (1) carbohydrate-attached-to-collagen by the anthrone method, as described by Halhoul and Kleinberg ([…]) Anal. Biochem. 50: 337-343 and (2) total protein using the BioRad Assay, BioRad Chemical Division, Richmond, Calif.

skin collagen [7] = assay: Glycosylation of diabetic rat skin collagen (Example V, Table IV); type: in vivo, Sprague-Dawley rat; conditions: 5 mg daily oral gavage, 21 days
Description: All animals were weighed weekly.
The subcutaneous muscle layer was removed leaving essentially the dermis. The dermis (skin connective tissue) samples were minced, then homogenized in phosphate buffered saline (4° C.). Following centrifugation (at 9000 rpm, 4° C., 30 min.) of the homogenates, the supernatants were discarded. The pellets were repeatedly washed, then resuspended and extracted at 4° C. overnight in chloroform/methanol to remove lipids. The de-lipidized tissue samples were then washed in 100% methanol, then in 50% methanol. Following the methanol washes, the samples were washed with HEPES buffer (pH 7.4). The skin connective tissue samples (100 mg of each sample) were incubated at 37° C. (24 hours) with chromatographically-purified bacterial collagenase. After 24 hours the reaction mixture was centrifuged at 7000 rpm, room temperature for 30 minutes. Following centrifugation, the supernatants containing the digested collagen were collected. Aliquots of the supernatants were analyzed for glycosylated collagen using a modification of the Isolab Glyco-PROBE™ GSP assay kit. The assay is designed to measure glucose bound to protein which was then converted by Amadori rearrangement to fructosamine. For purposes of the present invention, the sample total protein was increased to compensate for low levels of glycosylated collagen compared to glycosylated serum proteins.

## CC1(O)c2cccc(O)c2C(=O)C2=C(O)C3(O)C(=O)C(C(N)=O)=C(O)CC3CC21 (stereo not drawn) [CMT-1, 4-dedimethylaminotetracycline]
[1]
  severity of hyperglycemia (blood glucose concentration): did not significantly alter the severity of hyperglycemia
[2]; 1 mg CMT/day oral
  Serum CMT-1 Conc.: 0.75 ± 0.04 µg/mL
[2]; 1 mg oral dose
  serum concentration for individual rats: 0.6 µg/mL
[2]; 2 mg CMT/day oral
  Serum CMT-1 Conc.: 1.75 ± 0.05 µg/mL
[2]; 5 mg CMT/day oral
  Serum CMT-1 Conc.: 3.90 ± 0.16 µg/mL
[2]; 10 mg CMT/day oral
  Serum CMT-1 Conc.: 5.80 ± 0.25 µg/mL
[2]; 10 mg oral dose
  serum concentration for individual rats: 6.5 µg/mL
Skin collagen [3]; 1 mg CMT/day oral
  increase of collagen solubility in neutral salt solutions: 10%
Skin collagen [3]; 1 mg/day oral
  increase of collagen solubility in dilute acid solutions: 18%
Skin collagen [3]; 10 mg/day oral
  increase of collagen solubility in dilute acid solutions: 174%
  increase of collagen solubility in neutral salt solutions: 91%
Skin collagen [3]; diabetic rats, oral
  quality of collagen in the skin (inhibition of excess crosslinking): normalized
[4]
  proteinuria in diabetic rats: a reduction in proteinuria
[5]
  other signs of diabetes including hyperglycemia, glucosuria and polyuria: Neither treatment with minocycline nor CMT-1 reduced the other signs of diabetes
Serum protein
  fructosamine attached to serum protein (glycosylated serum protein): returned both of these parameters of abnormal glycosylation to essentially normal levels
Skin collagen [6]
  glycosylation of skin collagen: returned both of these parameters of abnormal glycosylation to essentially normal levels
Skin collagen [7]; NDC 0.027, untreated diabetic 0.377
  mM Fructosamine/mg protein (Mean ± SE): 0.123 ± 0.011 mM Fructosamine/mg protein
Skin collagen [7]; vs untreated diabetic control
  Reduction of glycosylation in treated diabetics (%): 67.4%
